Test results published in patent publication US5776673A, “Treatment and detection of tuberculosis, leprosy, and related diseases” (priority 1995, dated 1998).

Key:
T7 DNA polymerase [1] = biological target: T1, T7 DNA polymerase (Escherichia phage T7, UniProt P00581, DEL118-145); type: biochemical, Bacteriophage T7; conditions: for percentage of counts in the first three dideoxy-terminated fragments to the total number of counts in the primers capable of being extended: 100 μM 4dNTPs and 100 μM of one ddNTP; for M, calculated exponential decay function: 1:1 dNTP:ddNTP, fit Y=e^M*X; for Incorporation Rate Ratios dN/ddN: absolute ratios from 1:1 dNTP:ddNTP test; for D, discrimination factor, ratio of use of dNTP to comparable ddNTP: equal concentrations, D=Y/(1-Y) at X=1
Description: (§1) Reaction conditions are used that are optimum for the DNA polymerase being tested with regard to buffer, pH, salts, and temperature of the reaction. A concentration of DNA polymerase is chosen whereby most of the primers are extended in a 10 min reaction and are terminated by the incorporation of a dideoxynucleotide. The reaction mixture contains 100 μM 4dNTPs and 100 μM of one of the four ddNTPs.
(§2) We used this test to compare the ability of six DNA polymerases to incorporate each of the four ddNMPs.
(§3) The reaction mixtures also contained 10 ng of yeast inorganic pyrophosphatase to inhibit pyrophosphorolysis that could otherwise increase the apparent discrimination by the DNA polymerase (Tabor and Richardson 265 J. Biol. Chem. 8322, 1990). The reactions were initiated by the addition of 2 μl of each DNA polymerase, diluted in 20 mM Tris.HCl, pH 7.5, 10 mM 2-mercaptoethanol and 0.05% bovine serum albumin to a concentration of approximately 0.025 units/μl. […] The reactions were terminated by the addition of 10 μl 90% formamide, 20 mM EDTA, 0.05% bromphenol blue. Each sample was heated at 90° C. for 2 min immediately prior to loading 6 μl of each sample onto a gel consisting of 8% polyacrylamide, 0.4% N,N'-methylenebisacrylamide, 7M urea in 100 mM Tris borate, pH 8.3, 1 mM EDTA. Electrophoresis was at 2000 Volts for 90 min (until the bromphenol blue had just run off the bottom of the gel). After electrophoresis, the gel was dried under vacuum, and autoradiographed. After autoradiography, the distribution of radioactively labeled fragments was determined by Phosphorimager analysis (Molecular Dynamics). Alternatively, the relative intensities of dideoxy-terminated bands can be determined by scanning the autoradiograph using an instrument such as the SciScan 5000 imaging densitometer (United States Biochemical Corp).
(§4) The distribution of radioactivity in the fragments was quantitated by Phosphoimager analysis (Molecular Dynamics). The total amount of labeled primers in each lane was determined by running three control reactions in which no DNA polymerase was present, and the radioactivity in each of the corresponding radioactive bands on the gel at the position of the unextended primer was determined. […] This value is defined as the total number of counts in primers that are capable of being extended by a DNA polymerase.
(§5) The values are presented in the Table below as the percentage of counts in the first three dideoxy-terminated fragments to the total number of counts in the primers capable of being extended by a DNA polymerase.
(§6) As a further test of the efficiency of each DNA polymerase to incorporate dideoxynucleotides, the number of counts in each fragment with a significant signal was determined for each reaction, and the data were plotted as a function of the fragment number using the Macintosh program Kaleidograph Version 3.0 (Synergy Software). The resulting plots were fit to an exponential decay curve using the Kaleidograph library routine for this function. The decay curve is given by the equation: […]

Taq DNA polymerase F667Y [2] = biological target: T2, Taq DNA polymerase F667Y (Thermus aquaticus, UniProt P19821, F667Y); type: biochemical; conditions: for M, calculated exponential decay function: 1:1 dNTP:ddNTP, fit Y=e^M*X; for Incorporation Rate Ratios dN/ddN: absolute ratios from 1:1 dNTP:ddNTP test; for D, discrimination factor, ratio of use of dNTP to comparable ddNTP: equal concentrations, D=Y/(1-Y) at X=1
Description: as §1, §2, §3, §4, §5, §6

E. coli DNA polymerase I [3] = biological target: T3, E. coli DNA polymerase I (Escherichia coli, UniProt P00582); conditions: 10 μM 4 dNTPs, ddNTP 100 to 2,000 μM; factor versus F762Y multiplied by its absolute ratio
T7 DNA polymerase Y526F [4] = biological target: T4, T7 DNA polymerase Y526F (Escherichia phage T7, UniProt P00581, DEL118-145/Y526F); conditions: 10 μM 4 dNTPs, ddNTP 100 to 2,000 μM; factor versus T7 DNA polymerase multiplied by its absolute ratio
Taq DNA polymerase [5] = biological target: T5, Taq DNA polymerase (Thermus aquaticus, UniProt P19821); conditions: 10 μM 4 dNTPs, ddNTP 100 to 2,000 μM; factor versus F667Y multiplied by its absolute ratio
E. coli DNA polymerase I [6] = biological target: T3, E. coli DNA polymerase I; test: Competition of dATP and ddATP at a single site in synthetic Primer-Template A (Example 4); type: biochemical; set-up: The large fragment of E. coli DNA polymerase I, commonly called the Klenow fragment; conditions: 10 μM dATP; read-out: [ddATP] for 50% inhibition
Description: (§7) Example 4. Determination of the efficiency of incorporation of dideoxynucleotides by measuring the incorporation of [α-^32 P]dAMP into synthetic primer-template complexes
(§8) In this example the competition between a dNTP and a ddNTP is assayed for use at a single site in a synthetic primer-template. This assay differs from the others in that it limits the comparison of the use of the two substrates to a single site, avoiding the complication of sequence-specific variability in discrimination. […]
(§9) Each reaction mixture contains 25 pmoles each of primer and template. […] The mixtures are incubated at 37° C. for 1 min (70° C. for thermophilic DNA polymerases), and the reactions are initiated by the addition of 5 μl aliquots (0.01 to 1 unit) of the DNA polymerase being analyzed diluted in 20 mM Tris.HCl, pH 7.5, 10 mM 2-mercaptoethanol and 0.05% bovine serum albumin. […] The disks are then dried under a heat lamp and counted in a scintillation counter in 5 ml of fluor (Opti-Fluor O, Packard). From the amount of radioactivity on each disk, the amount [^32 P]dGMP incorporated was determined. […]
(§10) All reactions are carried out with a constant amount of the DNA polymerase being analyzed; the amount of DNA polymerase should be sufficient to replicate 50% of the total […] residues in the single-stranded region of the template in the 10 min incubation in the presence of 10 μM DATP and the absence of ddATP. […]

T7 DNA polymerase [7] = biological target: T1, T7 DNA polymerase; test: as above; type: biochemical, Bacteriophage T7; conditions: 10 μM dATP; read-out: [ddATP] for 50% inhibition
Description: as §7, §8, §9, §10

T7 DNA polymerase Y526F [8] = biological target: T4, T7 DNA polymerase Y526F; test: as above; type: biochemical, Bacteriophage T7; conditions: 10 μM dATP; read-out: [ddATP] for 50% inhibition
Description: as §7, §8, §9, §10

Taq DNA polymerase F667Y [9] = biological target: T2, Taq DNA polymerase F667Y; test: as above; type: biochemical; conditions: 10 μM dATP; read-out: [ddATP] for 50% inhibition
Description: as §7, §8, §9, §10

Taq DNA polymerase [10] = biological target: T5, Taq DNA polymerase; test: as above; type: biochemical; conditions: 10 μM dATP; read-out: [ddATP] for 50% inhibition
Description: as §7, §8, §9, §10

Structure (SMILES)	percentage of counts in the first three dideoxy-terminated fragments to the total number of counts in the primers capable of being extended (T7 DNA polymerase [1]) [%]	M, calculated exponential decay function (T7 DNA polymerase [1])	Incorporation Rate Ratios dN/ddN (T7 DNA polymerase [1])	D, discrimination factor, ratio of use of dNTP to comparable ddNTP (T7 DNA polymerase [1])	M, calculated exponential decay function (Taq DNA polymerase F667Y [2])	Incorporation Rate Ratios dN/ddN (Taq DNA polymerase F667Y [2])	D, discrimination factor, ratio of use of dNTP to comparable ddNTP (Taq DNA polymerase F667Y [2])	Incorporation Rate Ratios dN/ddN (E. coli DNA polymerase I [3])	Incorporation Rate Ratios dN/ddN (T7 DNA polymerase Y526F [4])	Incorporation Rate Ratios dN/ddN (Taq DNA polymerase [5])	IC50 (E. coli DNA polymerase I [6]) [µM]	IC50 (T7 DNA polymerase [7]) [µM]	IC50 (T7 DNA polymerase Y526F [8]) [µM]	IC50 (Taq DNA polymerase F667Y [9]) [µM]	IC50 (Taq DNA polymerase [10]) [µM]
Nc1nc2c(ncn2[C@H]2CC[C@@H](COP(=O)(O)OP(=O)(O)OP(=O)(O)O)O2)c(=O)[nH]1 [ddGTP]	67	-0.375	3.2	2.2	-1.18	0.45	0.45	140	6,400	1,400					
Nc1ncnc2c1ncn2[C@H]1CC[C@@H](COP(=O)(O)OP(=O)(O)OP(=O)(O)O)O1 [ddATP]	66	-0.356	3.3	2.3	-0.997	0.59	0.59	720	7,300	4,700	> 500	~30	> 500	~5	> 500
Nc1ccn([C@H]2CC[C@@H](COP(=O)(O)OP(=O)(O)OP(=O)(O)O)O2)c(=O)n1 [ddCTP]	61	-0.317	3.7	2.7	-1.44	0.32	0.32	250	11,000	2,600					
Cc1cn([C@H]2CC[C@@H](COP(=O)(O)OP(=O)(O)OP(=O)(O)O)O2)c(=O)[nH]c1=O [ddTTP]	76	-0.450	2.8	1.8	-1.01	0.56	0.56	1,100	8,400	4,500					
